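All cell lines were grown in 96-well plates and treated with compound for 48 hours. GI50: concentration for 50% inhibition of growth.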 Active and inactive are the calls of the source. Rule as the data show it: active = GI50 up to about 1.1 µM and inactive = higher.
Key:
Test in all cases: NCI anticancer screen, dose series, 48 h
OVCAR-4 = system: OVCAR-4
HL-60 = system: HL-60
CCRF-CEM = system: CCRF-CEM
786-0 = system: 786-0
SK-MEL-2 = system: SK-MEL-2
DMS-114 = system: DMS-114
SN12C = system: SN12C
LXFL 529 = system: LXFL 529
SNB-78 = system: SNB-78
DLD-1 = system: DLD-1
SF-268 = system: SF-268
A498 = system: A498
OVCAR-5 = system: OVCAR-5
UACC-62 = system: UACC-62
U-251 = system: U-251
HCC 2998 = system: HCC 2998
ACHN = system: ACHN
A549 = system: A549
XF498 = system: XF498
CAKI-1 = system: CAKI-1
SK-MEL-28 = system: SK-MEL-28
SNB-19 = system: SNB-19
OVCAR-3 = system: OVCAR-3
SK-OV-3 = system: SK-OV-3
SR = system: SR
MOLT-4 = system: MOLT-4
NCI-H522 = system: NCI-H522
HOP-62 = system: HOP-62
NCI-H226 = system: NCI-H226
LOX IMVI = system: LOX IMVI
IGROV-1 = system: IGROV-1
HOP-92 = system: HOP-92
M14 = system: M14
SNB-75 = system: SNB-75
HCT-116 = system: HCT-116
M19-MEL = system: M19-MEL
UACC-257 = system: UACC-257
UO-31 = system: UO-31
SF-539 = system: SF-539
RXF 631 = system: RXF 631
SK-MEL-5 = system: SK-MEL-5
Malme-3M = system: Malme-3M
TK-10 = system: TK-10
COLO 205 = system: COLO 205
HT-29 = system: HT-29
K562 = system: K562
SW-620 = system: SW-620
SF-295 = system: SF-295
HOP-18 = system: HOP-18
EKVX = system: EKVX
KM12 = system: KM12
DMS-273 = system: DMS-273
KM-20L2 = system: KM-20L2
RXF 393 = system: RXF 393
NCI-H23 = system: NCI-H23
OVCAR-8 = system: OVCAR-8
RPMI-8226 = system: RPMI-8226
HCT-15 = system: HCT-15
NCI-H460 = system: NCI-H460

For `C[C@@]1(CBr)C[C@@](C)(/C=C/Cl)[C@@H](Cl)C[C@H]1Cl`, the GI50 (OVCAR-4) was 11.6 µM (inactive), the GI50 (HL-60) was 3.06 µM (inactive) and the GI50 (CCRF-CEM) was 2.92 µM (inactive). For the same compound, the GI50 (786-0) was 14 µM (inactive), the GI50 (SK-MEL-2) was 2.74 µM (inactive) and the GI50 (DMS-114) was 12.7 µM (inactive). For the same compound, the GI50 (SN12C) was 11.7 µM (inactive), the GI50 (LXFL 529) was 10 µM (inactive) and the GI50 (SNB-78) was 2.94 µM (inactive). The GI50 (DLD-1) was 13.6 µM (inactive), the GI50 (SF-268) was 15.9 µM (inactive) and the GI50 (A498) was 16.9 µM (inactive). For the same compound, the GI50 (OVCAR-5) was 13.5 µM (inactive), the GI50 (UACC-62) was 15.5 µM (inactive) and the GI50 (U-251) was 14.2 µM (inactive). For the same compound, the GI50 (HCC 2998) was 16.1 µM (inactive), the GI50 (ACHN) was 12.7 µM (inactive) and the GI50 (A549) was 12.3 µM (inactive). The GI50 (XF498) was 11.7 µM (inactive), the GI50 (CAKI-1) was 17.3 µM (inactive) and the GI50 (SK-MEL-28) was 17.5 µM (inactive). The GI50 (SNB-19) was 13.5 µM (inactive), the GI50 (OVCAR-3) was 10.8 µM (inactive) and the GI50 (SK-OV-3) was 16 µM (inactive). The GI50 (SR) was 1.9 µM (inactive), the GI50 (MOLT-4) was 4.03 µM (inactive) and the GI50 (NCI-H522) was 3.31 µM (inactive). For the same compound, the GI50 (HOP-62) was 14.2 µM (inactive), the GI50 (NCI-H226) was 12.8 µM (inactive) and the GI50 (LOX IMVI) was 11.5 µM (inactive). The GI50 (IGROV-1) was 14.8 µM (inactive), the GI50 (HOP-92) was 13.6 µM (inactive) and the GI50 (M14) was 15.5 µM (inactive). For the same compound, the GI50 (SNB-75) was 16.1 µM (inactive), the GI50 (HCT-116) was 7.03 µM (inactive) and the GI50 (M19-MEL) was 13.1 µM (inactive). The GI50 (UACC-257) was 11.4 µM (inactive), the GI50 (UO-31) was 15.6 µM (inactive) and the GI50 (SF-539) was 14.6 µM (inactive). For the same compound, the GI50 (RXF 631) was 11.9 µM (inactive), the GI50 (SK-MEL-5) was 13.3 µM (inactive) and the GI50 (Malme-3M) was 16.4 µM (inactive). For the same compound, the GI50 (TK-10) was 14.7 µM (inactive), the GI50 (COLO 205) was 13.5 µM (inactive) and the GI50 (HT-29) was 9.04 µM (inactive). The GI50 (K562) was 4.74 µM (inactive), the GI50 (SW-620) was 13.9 µM (inactive) and the GI50 (SF-295) was 13.8 µM (inactive). For the same compound, the GI50 (HOP-18) was 13.5 µM (inactive), the GI50 (EKVX) was 18.1 µM (inactive) and the GI50 (KM12) was 7.83 µM (inactive). For the same compound, the GI50 (DMS-273) was 10.8 µM (inactive), the GI50 (KM-20L2) was 11.6 µM (inactive) and the GI50 (RXF 393) was 13.8 µM (inactive). The GI50 (NCI-H23) was 13.3 µM (inactive) and the GI50 (OVCAR-8) was 13.9 µM (inactive).
For `O=C(c1cc2ccccc2o1)N(Cc1ccccc1)c1ccccc1`, the GI50 (HL-60) was 16.4 µM (inactive), the GI50 (CCRF-CEM) was 13.6 µM (inactive) and the GI50 (786-0) was 20.2 µM (inactive). The GI50 (SK-MEL-2) was 33.8 µM (inactive), the GI50 (DMS-114) was 19.3 µM (inactive) and the GI50 (SN12C) was 18 µM (inactive). The GI50 (LXFL 529) was 30.8 µM (inactive), the GI50 (SNB-78) was 63.1 µM (inactive) and the GI50 (DLD-1) was 22.8 µM (inactive). The GI50 (SF-268) was 41.4 µM (inactive), the GI50 (A498) was 34.4 µM (inactive) and the GI50 (OVCAR-5) was 30.3 µM (inactive). For the same compound, the GI50 (UACC-62) was 14.4 µM (inactive), the GI50 (HCC 2998) was 23.4 µM (inactive) and the GI50 (ACHN) was 26.6 µM (inactive). For the same compound, the GI50 (A549) was 32.6 µM (inactive), the GI50 (XF498) was 23.3 µM (inactive) and the GI50 (CAKI-1) was 19.5 µM (inactive). The GI50 (SK-MEL-28) was 36.9 µM (inactive), the GI50 (SNB-19) was 35.9 µM (inactive) and the GI50 (OVCAR-3) was 20.3 µM (inactive). For the same compound, the GI50 (SK-OV-3) was 33.2 µM (inactive), the GI50 (SR) was 26.9 µM (inactive) and the GI50 (MOLT-4) was 16.6 µM (inactive). For the same compound, the GI50 (NCI-H522) was 16.4 µM (inactive), the GI50 (HOP-62) was 30.5 µM (inactive) and the GI50 (RPMI-8226) was 18.2 µM (inactive). The GI50 (NCI-H226) was 15.6 µM (inactive), the GI50 (LOX IMVI) was 21 µM (inactive) and the GI50 (IGROV-1) was 35.5 µM (inactive). For the same compound, the GI50 (HOP-92) was 20.7 µM (inactive), the GI50 (M14) was 18.6 µM (inactive) and the GI50 (SNB-75) was 28.3 µM (inactive). The GI50 (HCT-116) was 16.9 µM (inactive), the GI50 (M19-MEL) was 21.7 µM (inactive) and the GI50 (UACC-257) was 20.3 µM (inactive). The GI50 (HCT-15) was 18 µM, the GI50 (UO-31) was 22.9 µM (inactive) and the GI50 (RXF 631) was 26.9 µM (inactive). The GI50 (SK-MEL-5) was 16.1 µM (inactive), the GI50 (Malme-3M) was 23.7 µM (inactive) and the GI50 (TK-10) was 33.6 µM (inactive). For the same compound, the GI50 (COLO 205) was 20.4 µM (inactive), the GI50 (HT-29) was 22.8 µM (inactive) and the GI50 (K562) was 15 µM (inactive). The GI50 (SW-620) was 15.8 µM (inactive), the GI50 (SF-295) was 34.4 µM (inactive) and the GI50 (NCI-H460) was 26.9 µM (inactive). The GI50 (HOP-18) was 30.5 µM (inactive), the GI50 (EKVX) was 27 µM (inactive) and the GI50 (KM12) was 20.6 µM (inactive). The GI50 (DMS-273) was 30.8 µM (inactive), the GI50 (KM-20L2) was 17.3 µM (inactive) and the GI50 (RXF 393) was 26 µM (inactive). The GI50 (NCI-H23) was 27 µM (inactive) and the GI50 (OVCAR-8) was 22.9 µM (inactive).
For `CC(C)C1=CC2=CC[C@@H]3[C@](C)(CCC[C@@]3(C)C(=O)O)[C@H]2CC1` [ABIETIC ACID], the GI50 (OVCAR-4) was 59.6 µM (inactive), the GI50 (HL-60) was > 50.5 µM (inactive) and the GI50 (CCRF-CEM) was 42.9 µM (inactive). The GI50 (SK-MEL-2) was > 50.9 µM (inactive), the GI50 (DMS-114) was 58.9 µM (inactive) and the GI50 (SN12C) was 62.4 µM (inactive). For the same compound, the GI50 (LXFL 529) was 64.3 µM (inactive), the GI50 (SNB-78) was 59.7 µM (inactive) and the GI50 (DLD-1) was > 67.9 µM (inactive). For the same compound, the GI50 (SF-268) was > 69 µM (inactive), the GI50 (A498) was 49.8 µM (inactive) and the GI50 (OVCAR-5) was > 75.5 µM (inactive). For the same compound, the GI50 (UACC-62) was 36.3 µM (inactive), the GI50 (U-251) was 50.1 µM (inactive) and the GI50 (HCC 2998) was > 80 µM (inactive). For the same compound, the GI50 (ACHN) was 53.8 µM (inactive), the GI50 (A549) was 50.6 µM (inactive) and the GI50 (XF498) was 73.6 µM (inactive). The GI50 (CAKI-1) was 36.2 µM (inactive), the GI50 (SK-MEL-28) was > 59.3 µM (inactive) and the GI50 (SNB-19) was > 67.1 µM (inactive). The GI50 (OVCAR-3) was 35.7 µM (inactive), the GI50 (SK-OV-3) was > 81.7 µM (inactive) and the GI50 (SR) was > 100 µM (inactive). For the same compound, the GI50 (MOLT-4) was 40.2 µM (inactive), the GI50 (NCI-H522) was 45.7 µM (inactive) and the GI50 (HOP-62) was > 67.8 µM (inactive). For the same compound, the GI50 (RPMI-8226) was > 46.6 µM (inactive), the GI50 (NCI-H226) was 49.2 µM (inactive) and the GI50 (LOX IMVI) was 58.6 µM (inactive). For the same compound, the GI50 (IGROV-1) was 57.5 µM (inactive), the GI50 (HOP-92) was 37.2 µM (inactive) and the GI50 (M14) was 67.9 µM (inactive). For the same compound, the GI50 (SNB-75) was 55.8 µM (inactive), the GI50 (HCT-116) was 45.1 µM (inactive) and the GI50 (M19-MEL) was 59 µM (inactive). For the same compound, the GI50 (UACC-257) was 56.1 µM (inactive), the GI50 (HCT-15) was 43.4 µM and the GI50 (UO-31) was 43.7 µM (inactive). The GI50 (SF-539) was > 70.8 µM (inactive), the GI50 (RXF 631) was 62.8 µM (inactive) and the GI50 (SK-MEL-5) was 60.5 µM (inactive). The GI50 (Malme-3M) was > 67 µM (inactive), the GI50 (TK-10) was > 66.4 µM (inactive) and the GI50 (COLO 205) was 40.3 µM (inactive). For the same compound, the GI50 (HT-29) was 30.1 µM (inactive), the GI50 (K562) was > 53 µM (inactive) and the GI50 (SW-620) was 45.8 µM (inactive). For the same compound, the GI50 (SF-295) was 37.8 µM (inactive), the GI50 (NCI-H460) was 47 µM (inactive) and the GI50 (HOP-18) was > 75 µM (inactive). For the same compound, the GI50 (EKVX) was 42.6 µM (inactive), the GI50 (KM12) was 37.8 µM (inactive) and the GI50 (DMS-273) was 48.1 µM (inactive). The GI50 (KM-20L2) was 63.2 µM (inactive), the GI50 (RXF 393) was > 62.1 µM (inactive) and the GI50 (NCI-H23) was 45.3 µM (inactive). For the same compound, the GI50 (OVCAR-8) was > 56.9 µM (inactive).

Source: ChEMBL document CHEMBL1201862, “PubChem BioAssay data set” (2004)
